The text below walks through data of patent US8901116B2, “Method for treating pain, anxiety or depression using carbamoyloxy alkanoyl piperazine compound” (SK Biopharmaceuticals Co., Ltd., priority 2007, dated 2014).

Structures are written as SMILES.

Common to all, as to assay type: in vivo
Experiment [1] has as its system male ICR mouse. In words: Acetic acid-induced writhing test in mouse. The note with it: po, p.o, acetic acid i.p. 1 hour after dosing, writhing counted for 10 minutes, read-out: Writhing Test Suppression of pain response. As to the method: An acetic acid-induced writhing test is one of models for measuring an analgesic effect of drugs. A test material dissolved in a suitable vehicle was orally administered to a male ICR mouse weighing 30 to 35 g at an amount of 10 mg/kg. After 1 hour of the oral administration, […] of an aqueous 0.8% acetic acid solution was intraperitoneally injected into the male ICR mouse to induce the abdominal pain of the male ICR mouse. Right after the administration of acetic acid, the male ICR mouse was put into an empty cage, and the number of writhing behaviors of the mice was counted for 10 minutes. The term “writhing” represents a reflex action in which the mouse overtly extends its abdomen by stretching its hind legs due to the abdominal pain. The analgesic effect of the test material is represented by the ‘suppression of pain response’ {[(Writhing number of vehicle-administered group−Writhing number of Test material—administered group)/(Writhing number of Solvent-administered group)]×100%}.
A general note: In writhing tests, fewer writhes than in controls are read as antinociception.

In experiment [2] the test system is male ICR mouse. In words: Hot plate test in mouse. The following applies: po, p.o, 1 hour after dosing, hot plate 55° C., read-out: Hot Plate Test Increase in latency of avoidance response. As for the experimental part: A hot plate test is one of representative models for measuring an analgesic effect of drugs. A test material dissolved in a suitable vehicle was orally administered to a male ICR mouse weighing 25 to 30 g at an amount of 30 mg/kg. After 1 hour of the oral administration, the mouse was put on a hot plate (55° C.). A latency was recorded from the time right after a mouse is put on a hot plate to the time when avoidance responses (flinching, licking, jumping, etc.) to pain are observed from forefeet or rear legs of the mouse. The analgesic effect of the test material is represented by the ‘Increase in latency of avoidance response’ {[(Latency of avoidance response to pain of Test material-administered group−Latency of avoidance response to pain of vehicle-administered group)/(Latency of avoidance response to pain of Solvent-administered group)]×100%}.
In general terms: In hot-plate and tail-flick tests a longer latency is read as antinociception.

The subject of experiment [3] is male ICR mouse. Put plainly: Head twitch potentiation induced by 5-HTP (5-HTP potentiation test) in mouse. The note with it: po, 0.5 h, p.o, 5-HTP 80 mg/kg + Carbidopa 25 mg/kg i.p. 30 minutes after dosing, head twitches counted for 2 minutes, negative = 5-HT2A antagonist, read-out: 5-HTP Potentiation Increase rate in Head Twitch No. As to the method: When 5-hydroxy-L-tryptophan (5-HTP) is administered into a mouse, a head twitch phenomenon is observed since serotonin is increasingly secreted in the mouse. […] By using this principle, it is possible to search an effect of the representative antidepressant agent. A test material dissolved in a suitable vehicle was orally administered to a male ICR mouse weighing 20 to 25 g at an amount of 30 mg/kg. After 30 minutes of the oral administration, 5-HTP (80 mg/kg) and 5-HTP peripheral decarbozylase inhibitor ‘Carbidopa’ (25 mg/kg) were intraperitoneally administered to the mouse. After 30 minutes of the intraperitoneal administration, the mouse was put into an observation cage, and head twitches of the mouse were counted for 2 minutes. The anti-depression effect of the test material is represented by the ‘Increase rate in Head Twitch No.’ {[(Head Twitch No. of Test material-administered group−Head Twitch No. of vehicle-administered group)/(Head Twitch No. of vehicle-administered group)]×100%}. […] In addition to the selective serotonin reuptake inhibitor (SSRI) that has been widely used as an antidepressant agent in the clinical fields, it was tested that 5-HT2A antagonists such as nefazodone and trazodone also have an antidepressant effect.

Experiment [4] concerns male ICR mouse. In words: Elevated plus maze (EPM) test in mouse. The following applies: po, p.o, 1 hour after dosing, 5 minutes observation, read-out: Elevated Plus Maze Change index in Open-Arm Time. The text has this:
Elevated plus maze (EPM) is one of representative models that examine an anti-anxiety activity of a test material. Equipment used for an EPM test has a crossroad shape raised in a high position off the ground, and is configured in such a cliff shape that both sides of one road are protected with high walls and the other road is free from the wall. Among them, the road in the cliff shape is referred to as an ‘open arm,’ and the road protected by the walls is referred to as a ‘close arm.’ In this case, a level of the anxiety of a mouse may be measured by determining in which arm the mouse stays longer. In general, the mouse stays longer in the close arm than the open arm, but a mouse treated with a medicine showing an anti-anxiety effect stays relatively longer in the open arm. A test material dissolved in a suitable vehicle was orally administered to a male ICR mouse weighing 20 to 25 g at an amount of 10 mg/kg. After 1 hour of the oral administration, the mouse was put on the center of an EPM equipment to measure how long the mouse stays in the open arm within a time range of 5 minutes. The anti-anxiety effect of the test material is represented by the ‘Change index in Open-Arm Time’ {[(open arm duration in test material-administered group−open arm duration in vehicle-administered group)/(open arm duration in vehicle administered group)]×100%}.

For `CC(=O)Oc1ccc(N2CCN(C(=O)CC(OC(N)=O)c3ccccc3)CC2)cc1` (centres unmarked) [Example 23, acetic acid 4-[4-(3-carbamoyloxy-3-phenyl-propionyl)-piperazin-1-yl]-phenyl ester], the inhibition in vivo at 10 mg/kg with male ICR mouse [1] stood at 21.1%. In addition, the change in vivo at 30 mg/kg in the experiment with male ICR mouse [2] was determined as 29.4%; in the experiment with male ICR mouse [3], 100%. Also, the change in vivo at 10 mg/kg with male ICR mouse [4] is -25.1%.

Consider `NC(=O)OC(CC(=O)N1CCN(c2ccccc2)CC1)c1cc(F)ccc1F` (centres unmarked) [Example 57, carbamic acid 1-(2,5-difluoro-phenyl)-3-oxo-3-(4-phenyl-piperazin-1-yl)-propyl ester], for which, in the experiment on male ICR mouse [1], the inhibition in vivo at 10 mg/kg came out at 34.5%. Further, the change in vivo at 30 mg/kg came out at 11.2% in the experiment with male ICR mouse [2] and 27.9% with male ICR mouse [3]. For the same compound, the change in vivo at 10 mg/kg in the experiment with male ICR mouse [4] came to 88.8%.

As to `NC(=O)OC1c2ccccc2CCC1C(=O)N1CCN(c2ccccc2)CC1` (centres unmarked) [Example 52, carbamic acid-2-(4-phenyl-piperazine-1-carbonyl)-1,2,3,4-tetrahydro-naphthalene-1-yl ester], the inhibition in vivo at 10 mg/kg with male ICR mouse [1] is 26.8%. The values for the change in vivo at 30 mg/kg in the experiment on male ICR mouse [2] and in the experiment on male ICR mouse [3] were 20.5% and 40%, respectively. For the same compound, the change in vivo at 10 mg/kg in the experiment on male ICR mouse [4] was found to be 14.6%.

`Cc1ccc(N2CCN(C(=O)C[C@@H](OC(N)=O)c3ccccc3)CC2)cc1` [Example 80, (R)-carbamic acid 3-[4-(4-methyl)-phenylpiperazin-1-yl]-3-oxo-1-phenyl-propyl ester]: the inhibition in vivo at 10 mg/kg with male ICR mouse [1] was 36.3%. Further, the figures for the change in vivo at 30 mg/kg in the experiment with male ICR mouse [2] and in the experiment on male ICR mouse [3] were 16.7% and 12.5%, respectively. In addition, the change in vivo at 10 mg/kg in the experiment on male ICR mouse [4] came to 41.2%.

In the case of `COc1ccc(N2CCN(C(=O)C[C@@H](OC(N)=O)c3ccccc3)CC2)cc1` [Example 70, (R)-carbamic acid 3-[4-(4-methoxy-phenyl)-piperazin-1-yl]-3-oxo-1-phenyl-propyl ester], the inhibition in vivo at 10 mg/kg with male ICR mouse [1] was 59.8%. The figures for the change in vivo at 30 mg/kg with male ICR mouse [2] and with male ICR mouse [3] were 30.6% and 87.9%, respectively. Further, the change in vivo at 10 mg/kg in the experiment with male ICR mouse [4] is 109%.

`NC(=O)OC(CC(=O)N1CCN(c2ccc(Cl)c(Cl)c2)CC1)c1ccccc1` (centres unmarked) [Example 3, carbamic acid 3-[4-(3,4-dichloro-phenyl)-piperazin-1-yl]-3-oxo-1-phenyl-propyl ester]: the inhibition in vivo at 10 mg/kg in the experiment with male ICR mouse [1] came to 65%. For the same compound, the change in vivo at 30 mg/kg in the experiment on male ICR mouse [2] is 38.5%; in the experiment on male ICR mouse [3], 54.5%. Further, in the experiment with male ICR mouse [4], the change in vivo at 10 mg/kg worked out at 9.7%.

In the case of `Cc1cccc(C(CC(=O)N2CCN(c3ccccc3)CC2)OC(N)=O)c1` (centres unmarked) [Example 50, carbamic acid 1-(3-methyl-phenyl)-3-oxo-3-(4-phenyl-piperazin-1-yl)-propyl ester], in the experiment on male ICR mouse [1], the inhibition in vivo at 10 mg/kg was found to be 15%. The change in vivo at 30 mg/kg in the experiment on male ICR mouse [2] was 31.3%; with male ICR mouse [3], -21.3%. Further, the change in vivo at 10 mg/kg with male ICR mouse [4] was 65.4%.

Turning to `CCOc1ccc(N2CCN(C(=O)C[C@@H](OC(N)=O)c3ccccc3)CC2)cc1` [Example 63, (R)-carbamic acid 3-[4-(4-ethoxy-phenyl)-piperazin-1-yl]-3-oxo-1-phenyl-propyl ester], in the experiment with male ICR mouse [1], the inhibition in vivo at 10 mg/kg is 59.8%. In addition, the values for the change in vivo at 30 mg/kg with male ICR mouse [2] and in the experiment on male ICR mouse [3] were 15.2% and 19.5%, respectively. Further, in the experiment on male ICR mouse [4], the change in vivo at 10 mg/kg amounted to 25%.

On to `NC(=O)OC(CC(=O)N1CCN(c2cc(Cl)cc(Cl)c2)CC1)c1ccccc1` (centres unmarked) [Example 10, carbamic acid 3-[4-(3,5-dichloro-phenyl)-piperazin-1-yl]-3-oxo-1-phenyl-propyl ester], for which, in the experiment with male ICR mouse [1], the inhibition in vivo at 10 mg/kg came to 26%. In addition, the values for the change in vivo at 30 mg/kg with male ICR mouse [2] and in the experiment with male ICR mouse [3] were 14.8% and 85.7%, respectively. Besides, in the experiment with male ICR mouse [4], the change in vivo at 10 mg/kg is 27.3%.

With `NC(=O)OC(CC(=O)N1CCN(c2ccccc2)CC1)c1ccccc1Cl` (centres unmarked) [Example 43, carbamic acid 1-(2-chloro-phenyl)-3-oxo-3-(4-phenyl-piperazin-1-yl)-propyl ester], the inhibition in vivo at 10 mg/kg with male ICR mouse [1] is 46%. Also, the change in vivo at 30 mg/kg in the experiment with male ICR mouse [2] came out at 26.7%; in the experiment with male ICR mouse [3], 211%. Also, in the experiment with male ICR mouse [4], the change in vivo at 10 mg/kg is 19.7%.

Consider `NC(=O)OC(CC(=O)N1CCN(c2ccccc2)CC1)c1ccc(C(F)(F)F)cc1` (centres unmarked) [Example 31, carbamic acid 3-oxo-3-(4-phenyl-piperazin-1-yl)-1-(4-trifluoromethyl-phenyl)-propyl ester], for which the inhibition in vivo at 10 mg/kg in the experiment on male ICR mouse [1] turned out to be 21.6%. Besides, the change in vivo at 30 mg/kg stood at 20.1% with male ICR mouse [2] and 10% in the experiment on male ICR mouse [3]. Further, the change in vivo at 10 mg/kg in the experiment with male ICR mouse [4] amounted to 35.6%.

For the compound `Cc1ccc(C(CC(=O)N2CCN(c3ccccc3)CC2)OC(N)=O)cc1` (centres unmarked) [Example 32, carbamic acid 3-oxo-3-(4-phenyl-piperazin-1-yl)-1-p-tolyl-propyl ester], the inhibition in vivo at 10 mg/kg in the experiment on male ICR mouse [1] came out at 6%. The values for the change in vivo at 30 mg/kg with male ICR mouse [2] and in the experiment with male ICR mouse [3] were 28.2% and -40%, respectively. Also, the change in vivo at 10 mg/kg in the experiment with male ICR mouse [4] is 9.5%.

Turning to `NC(=O)O[C@H](CC(=O)N1CCN(c2ccc(Cl)cc2)CC1)c1ccccc1` [Example 61, (R)-carbamic acid 3-[4-(4-chloro-phenyl)-piperazin-1-yl]-3-oxo-1-phenyl-propyl ester], the inhibition in vivo at 10 mg/kg in the experiment on male ICR mouse [1] was 24.1%. In addition, the change in vivo at 30 mg/kg came out at 38.8% with male ICR mouse [2] and 27.3% in the experiment on male ICR mouse [3]. Also, the change in vivo at 10 mg/kg in the experiment on male ICR mouse [4] is -27.4%.

Turning to `O=C1Nc2ccccc2C(CC(=O)N2CCN(c3ccccc3)CC2)O1` (centres unmarked) [Example 77, 4-[2-oxo-2-(4-phenyl-piperazin-1-yl)-ethyl]-1,4-dihydro-benzo[d][1,3]oxazin-2-one], the inhibition in vivo at 10 mg/kg in the experiment on male ICR mouse [1] was found to be 26.4%. The values for the change in vivo at 30 mg/kg with male ICR mouse [2] and in the experiment with male ICR mouse [3] were 30.4% and 25%, respectively. For the same compound, the change in vivo at 10 mg/kg with male ICR mouse [4] came out at 4.9%.

In the case of `NC(=O)OC(CC(=O)N1CCN(c2ccccc2)CC1)c1ccc([N+](=O)[O-])cc1` (centres unmarked) [Example 34, carbamic acid 1-(4-nitro-phenyl)-3-oxo-3-(4-phenyl-piperazin-1-yl)-propyl ester], the inhibition in vivo at 10 mg/kg in the experiment on male ICR mouse [1] came to 38.4%. Besides, the change in vivo at 30 mg/kg stood at 0.6% with male ICR mouse [2] and 2.9% in the experiment with male ICR mouse [3]. Moreover, in the experiment with male ICR mouse [4], the change in vivo at 10 mg/kg turned out to be 6.5%.

As to `NC(=O)O[C@@H](CC(=O)N1CCN(c2ccc(F)c(F)c2)CC1)c1ccccc1` [Example 64, (S)-carbamic acid 3-[4-(3,4-difluoro-phenyl)-piperazin-1-yl]-3-oxo-1-phenyl-propyl ester], the inhibition in vivo at 10 mg/kg with male ICR mouse [1] is 41.1%. Further, the change in vivo at 30 mg/kg in the experiment on male ICR mouse [2] is 33%; in the experiment on male ICR mouse [3], 134%. In addition, the change in vivo at 10 mg/kg in the experiment on male ICR mouse [4] amounted to 125%.

As for `NC(=O)O[C@H](CC(=O)N1CCN(c2ccc(F)cc2F)CC1)c1ccccc1` [Example 82, (R)-carbamic acid 3-[4-(2,4-difluoro)-phenylpiperazin-1-yl]-3-oxo-1-phenyl-propyl ester], in the experiment with male ICR mouse [1], the inhibition in vivo at 10 mg/kg is 34.5%. The figures for the change in vivo at 30 mg/kg in the experiment with male ICR mouse [2] and in the experiment with male ICR mouse [3] were 65.7% and -20%, respectively. The change in vivo at 10 mg/kg with male ICR mouse [4] stood at 62.6%.
